These results are taken from publication PMC3553658 (Combinatorial chemistry & high throughput screening, 2012).

SMILES strings stand for the structures. Entries after “also recorded” stand apart in the source; their conditions may differ.

What all share (type): biochemical
Test [1] has as its target T1, SET8 (Homo sapiens, UniProt Q9NQR1).
T1 sequence (Q9NQR1 191-352 isoform Q9NQR1-2): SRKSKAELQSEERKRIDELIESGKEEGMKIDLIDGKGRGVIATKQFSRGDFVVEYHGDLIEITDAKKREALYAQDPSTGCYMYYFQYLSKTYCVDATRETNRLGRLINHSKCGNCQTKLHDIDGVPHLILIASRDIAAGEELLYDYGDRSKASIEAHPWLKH
The test is described as follows: SPIA-bead assay. The note with it: read-out: SET8 [% IHBN], SPIA primary screen, 10 μM compound, duplicate.

The target in test [2] is T2, SETD2 (Homo sapiens, UniProt Q9BYW2).
T2 sequence (Q9BYW2 1347-1711): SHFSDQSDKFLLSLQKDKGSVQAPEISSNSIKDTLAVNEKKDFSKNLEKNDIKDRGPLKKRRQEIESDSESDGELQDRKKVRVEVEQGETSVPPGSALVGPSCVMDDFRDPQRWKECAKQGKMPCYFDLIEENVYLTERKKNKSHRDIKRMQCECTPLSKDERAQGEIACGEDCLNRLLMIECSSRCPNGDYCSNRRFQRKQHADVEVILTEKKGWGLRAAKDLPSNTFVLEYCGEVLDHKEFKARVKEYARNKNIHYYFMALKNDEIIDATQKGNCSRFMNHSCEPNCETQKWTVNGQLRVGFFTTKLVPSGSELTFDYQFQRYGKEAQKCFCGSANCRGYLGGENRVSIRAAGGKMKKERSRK
The test is described as follows: Filter-paper assay dose response, SETD2. The note with it: up to 100 μM.

Test [3] deals with T1, SET8. Description: Filter-paper assay dose response, SET8. The note with it: up to 100 μM.
The target of test [4] is T2, SETD2. Description: SPIA-bead assay. To be noted: SPIA primary screen, 10 μM compound, duplicate.
Another test deals with T3, EuHMTase1 (Homo sapiens, UniProt Q9H9B1).
T3 sequence (Q9H9B1 982-1266): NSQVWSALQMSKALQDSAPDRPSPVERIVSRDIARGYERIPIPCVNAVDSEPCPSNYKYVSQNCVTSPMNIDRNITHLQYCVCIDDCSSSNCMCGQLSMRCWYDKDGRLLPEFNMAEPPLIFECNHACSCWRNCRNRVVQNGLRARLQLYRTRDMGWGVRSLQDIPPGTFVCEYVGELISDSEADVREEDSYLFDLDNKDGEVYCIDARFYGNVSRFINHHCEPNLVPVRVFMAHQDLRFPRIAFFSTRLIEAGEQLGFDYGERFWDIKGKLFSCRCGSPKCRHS
Description: Filter-paper assay dose response, EuHMTase1. The note with it: up to 100 μM.

In test [5] the target is T4, SET7/9 (Homo sapiens, UniProt Q8WTS6).
T4 sequence (Q8WTS6 1-366): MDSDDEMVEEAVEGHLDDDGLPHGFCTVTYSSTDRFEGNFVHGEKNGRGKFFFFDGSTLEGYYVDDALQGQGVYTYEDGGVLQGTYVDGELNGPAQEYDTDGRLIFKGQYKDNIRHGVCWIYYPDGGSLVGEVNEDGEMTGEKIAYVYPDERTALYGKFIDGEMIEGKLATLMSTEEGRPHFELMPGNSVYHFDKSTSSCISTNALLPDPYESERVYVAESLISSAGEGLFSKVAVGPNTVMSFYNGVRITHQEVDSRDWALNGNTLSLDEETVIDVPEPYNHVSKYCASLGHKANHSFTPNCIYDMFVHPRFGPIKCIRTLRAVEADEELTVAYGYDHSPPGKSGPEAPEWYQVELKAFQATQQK
Description: Filter-paper assay dose response, SET7/9. To be noted: up to 100 μM.

Test [6] addresses T4, SET7/9. The test is described as follows: SPIA-bead assay. To be noted: SPIA primary screen, 10 μM compound, duplicate.

Regarding `O=C(O)CCCC[C@@H]1SC[C@@H]2NC(=O)N[C@@H]21` [Biotin], the inhibition at 10 µM at SET8 [1] was in the range of 60 to 90%. Moreover, the “Inhibition of SETD2 in filter-paper assay” value at SETD2 [2] is listed as “no inhibition; also recorded: did not find inhibition”. Also, the “Inhibition of SET8 in filter-paper assay” value on SET8 [3] is “no inhibition; also recorded: did not find inhibition”. Moreover, at SETD2 [4], the “SETD2 [% IHBN]” value is 60–90%. The “Inhibition of EuHMTase1 in filter-paper assay” value on EuHMTase1 is “no inhibition; also recorded: did not find inhibition”. Further, the “Inhibition of SET7/9 in filter-paper assay” value at SET7/9 [5] is on record as “no inhibition; also recorded: did not find inhibition”.
Turning to `O=C(Nc1ccc(C(=O)Nc2ccc(C(=O)Nc3ccc(S(=O)(=O)[O-])c4cc(S(=O)(=O)[O-])cc(S(=O)(=O)[O-])c34)cc2)cc1)Nc1ccc(C(=O)Nc2ccc(C(=O)Nc3ccc(S(=O)(=O)[O-])c4cc(S(=O)(=O)[O-])cc(S(=O)(=O)[O-])c34)cc2)cc1.[Na+].[Na+].[Na+].[Na+].[Na+].[Na+]` [NF 279, 8,8′-[Carbonylbis(imino-4,1-phenylenecarbonylimino-4,1-phenylenecarbonylimino)]bis-1,3,5-naphtlenetrisulfonic acid hexasodium salt], the “SET7/9 [% IHBN]” value at SET7/9 [6] is listed as 83%.
